US20020052295A1, “Diacyl derivatives of propylene diamine having herbicidal activity” (priority 1999, published 2002)

What was measured:
Details in all cases: lowest tested rate giving 80% or greater inhibition, approx. 14 days after planting and treating, greenhouse
[1] = tested on: ABUTH; test: Pre-emergence herbicidal activity on ABUTH (velvetleaf); format: in vivo, Abutilon theophrasti
Source text: (§1) All such uses, and the biological activity enabling such uses, are embraced by the term “herbicidal” herein. Tables 15 and 16 summarize results of tests conducted as described below to determine the pre-emergence herbicidal activity, in the form of a GR80 value, of illustrative compounds of this invention. […] Where herbicidal activity was evident but 80% inhibition was not achieved at the highest rate tested (typically 1000 g/ha), an asterisk (*) is shown in the following tables. Herbicidal activity evident in the form of symptoms of phytotoxicity, in the absence of at least 80% inhibition at any rate, is indicated in the tables by “phyto”. A blank cell in the following tables indicates no herbicidal or phytotoxic response at any rate tested.
(§2) The pre-emergence tests were conducted by the following procedure. Topsoil was sieved to pass through a 1.27 cm screen. Fertilizer was added to the topsoil and the mixture was then sterilized by heating. The topsoil mixture was placed in a pot and compacted to a depth of 1.0 to 1.25 cm from the top of the pot. Seeds of each of several monocotyledonous and dicotyledonous annual plant species were placed on top of the soil. Additional soil was subsequently placed over the seeds to level-fill the pot. A known amount of each test compound dissolved or suspended in an appropriate organic solvent was diluted with a 50:50 mix of acetone and water and applied to the surface of the soil. After treatment the plants were placed in a greenhouse with a 30/21° C. day/night temperature regime where they received 0.64 cm of overhead irrigation. All subsequent watering consisted of a light overhead mist and/or subirrigation as needed for germination and growth.
(§3) Approximately 14 days after planting and treating, the plants were observed and herbicidal efficacy recorded as percent inhibition by comparison with untreated plants.
(§4) The plant species usually regarded as weeds which were utilized in the tests are identified in the tables below according to the following legend, in which “d” indicates a dicotyledonous species and “m” a monocotyledonous species. All monocotyledonous species included in the tests herein are grasses.

[2] = tested on: SOLNI; test: Pre-emergence herbicidal activity on SOLNI (black nightshade); format: in vivo, Solanum nigrum
Source text: as §1, §2, §3, §4

[3] = tested on: AMARE; test: Pre-emergence herbicidal activity on AMARE (redroot pigweed); format: in vivo, Amaranthus retroflexus
Source text: as §1, §2, §3, §4

[4] = tested on: DATST; test: Pre-emergence herbicidal activity on DATST (jimsonweed); format: in vivo, Datura stramonium
Source text: as §1, §2, §3, §4

[5] = tested on: CHEAL; test: Pre-emergence herbicidal activity on CHEAL (common lambsquarters); format: in vivo, Chenopodium album
Source text: as §1, §2, §3, §4

[6] = tested on: CONAR; test: Pre-emergence herbicidal activity on CONAR (field bindweed); format: in vivo, Convolvulus arvensis
Source text: as §1, §2, §3, §4

[7] = tested on: POROL; test: Pre-emergence herbicidal activity on POROL (common purslane); format: in vivo, Portulaca oleracea
Source text: as §1, §2, §3, §4

[8] = tested on: CIRAR; test: Pre-emergence herbicidal activity on CIRAR (canada thistle, seedling); format: in vivo, Cirsium arvense
Source text: as §1, §2, §3, §4

[9] = tested on: ECHCG; test: Pre-emergence herbicidal activity on ECHCG (barnyardgrass); format: in vivo, Echinochloa crus-galli
Source text: as §1, §2, §3, §4

[10] = tested on: PANMI; test: Pre-emergence herbicidal activity on PANMI (wild proso millet); format: in vivo, Panicum miliaceum
Source text: as §1, §2, §3, §4

[11] = tested on: SORHA; test: Pre-emergence herbicidal activity on SORHA (johnsongrass, seedling); format: in vivo, Sorghum halepense
Source text: as §1, §2, §3, §4

[12] = tested on: SETFA; test: Pre-emergence herbicidal activity on SETFA (giant foxtail); format: in vivo, Setaria faberi
Source text: as §1, §2, §3, §4

[13] = tested on: PANDI; test: Pre-emergence herbicidal activity on PANDI (fall panicum); format: in vivo, Panicum dichotomiflorum
Source text: as §1, §2, §3, §4

[14] = tested on: BRAPP; test: Pre-emergence herbicidal activity on BRAPP (broadleaf signalgrass); format: in vivo, Brachiaria platyphylla
Source text: as §1, §2, §3, §4

[15] = tested on: DIGSA; test: Pre-emergence herbicidal activity on DIGSA (large crabgrass); format: in vivo, Digitaria sanguinalis
Source text: as §1, §2, §3, §4

Row | Structure (SMILES) | Pre-emergence activity (GR80) on ABUTH [1] | Pre-emergence activity (GR80) on SOLNI [2] [g/ha] | Pre-emergence activity (GR80) on AMARE [3] [g/ha] | Pre-emergence activity (GR80) on DATST [4] | Pre-emergence activity (GR80) on CHEAL [5] [g/ha] | Pre-emergence activity (GR80) on CONAR [6] | Pre-emergence activity (GR80) on PORAL [7] [g/ha] | Pre-emergence activity (GR80) on CIRAR [8] | Pre-emergence activity (GR80) on ECHCG [9] | Pre-emergence activity (GR80) on PANMI [10] | Pre-emergence activity (GR80) on SORHA [11] | Pre-emergence activity (GR80) on SETFA [12] | Pre-emergence activity (GR80) on PANDI [13] | Pre-emergence activity (GR80) on BRAPP [14] | Pre-emergence activity (GR80) on DIGSA [15]
1 | Cc1c(Br)cccc1C(=O)NC(C)CNC(=O)c1cccc(C(F)(F)F)c1 (centres unmarked) [Example 57] | 750 g/ha | 250 | 64 | 125 g/ha | 32 | 250 g/ha | 125 | 500 g/ha | * (Where herbicidal activity was evident but 80% inhibition was not achieved at the highest rate tested (typically 1000 g/ha), an asterisk (*) is shown) | 750 g/ha | * (Where herbicidal activity was evident but 80% inhibition was not achieved at the highest rate tested (typically 1000 g/ha), an asterisk (*) is shown) | 250 g/ha | 125 g/ha | 750 g/ha | 500 g/ha
2 | Cc1ccccc1C(=O)NC(C)CNC(=O)c1cccc(C(F)(F)F)c1 (centres unmarked) [Example 109] | phyto | 750 | 250 | 500 g/ha | 750 | phyto | 750 | 750 g/ha | phyto | 1000 g/ha | * (Where herbicidal activity was evident but 80% inhibition was not achieved at the highest rate tested (typically 1000 g/ha), an asterisk (*) is shown) | 750 g/ha | 750 g/ha | * (Where herbicidal activity was evident but 80% inhibition was not achieved at the highest rate tested (typically 1000 g/ha), an asterisk (*) is shown) | 250 g/ha
3 | CC(CNC(=O)c1cccc(C(F)(F)F)c1)NC(=O)c1cccc(F)c1Cl (centres unmarked) [Example 37] | 250 g/ha | 250 | 64 | 250 g/ha | 125 | 250 g/ha | 64 | 250 g/ha | 1000 g/ha | 500 g/ha | 1000 g/ha | 250 g/ha | 250 g/ha | 500 g/ha | 250 g/ha
4 | Cc1cccc(C(=O)NC(C)CNC(=O)c2cccc(C(F)(F)F)c2)c1Br (centres unmarked) [Example 66] | 250 g/ha | 750 | 250 | 500 g/ha | 125 | 250 g/ha | 500 | 500 g/ha | 750 g/ha | 750 g/ha | * (Where herbicidal activity was evident but 80% inhibition was not achieved at the highest rate tested (typically 1000 g/ha), an asterisk (*) is shown) | 500 g/ha | 500 g/ha | 1000 g/ha | 750 g/ha
5 | C[C@H](CNC(=O)c1cccc(C(F)(F)F)c1)NC(=O)Oc1cccc(C(F)(F)F)c1 [Example 229, R—N-[1-methyl-2-(3-trifluoromethyl)phenylcarbonylamino]ethyl-3-(trifluoromethyl)phenylcarbamate] | * (Where herbicidal activity was evident but 80% inhibition was not achieved at the highest rate tested (typically 1000 g/ha), an asterisk (*) is shown) | 1000 | 300 | phyto | 300 | phyto | 100 | 300 g/ha | phyto | phyto | phyto | phyto | 300 g/ha |  | 1000 g/ha
6 | Cc1cccc(C(=O)NC(C)CNC(=O)c2cccc(C(F)(F)F)c2)c1Cl (centres unmarked) [Example 65] | 250 g/ha | 500 | 125 | 250 g/ha | 32 | 250 g/ha | 125 | 125 g/ha | 500 g/ha | 750 g/ha | * (Where herbicidal activity was evident but 80% inhibition was not achieved at the highest rate tested (typically 1000 g/ha), an asterisk (*) is shown) | 250 g/ha | 125 g/ha | 500 g/ha | 250 g/ha
7 | CC(CNC(=O)c1cccc(C(F)(F)F)c1)NC(=O)c1cccc(Br)c1F (centres unmarked) [Example 56] | 500 g/ha | 64 | 64 | 250 g/ha | 32 | * (Where herbicidal activity was evident but 80% inhibition was not achieved at the highest rate tested (typically 1000 g/ha), an asterisk (*) is shown) | 32 | 32 g/ha | 750 g/ha | 125 g/ha | 750 g/ha | 125 g/ha | 250 g/ha | 500 g/ha | 64 g/ha
8 | CC(CNC(=O)c1cccc(C(F)(F)F)c1)NC(=O)c1cccc(SC(F)(F)F)c1 (centres unmarked) [Example 73] | phyto | 1000 | 250 | phyto | 750 | phyto | 750 | phyto | phyto | phyto | phyto | phyto | * (Where herbicidal activity was evident but 80% inhibition was not achieved at the highest rate tested (typically 1000 g/ha), an asterisk (*) is shown) | phyto | phyto
